Experimental data taken from patent US11857532B2, “Treatment and prediction of therapeutic responses in patients suffering from Friedreich ataxia” (INSERM (Institut National de la Santé et de la Recherche …, priority 2018, dated 2024).

What was measured:
Type in all cases: cell-based, human
[1] = system: ferritin, FBXL5, SOD2, IRP1-2; experiment: Western blot of proteins involved in iron homeostasis and antioxidant defense in fibroblasts; settings: artesunate 25 μM for 48 h
Protocol: (§1) Skin fibroblasts were grown in Dulbecco's Modified Eagle Medium (DMEM, Life technologies) medium supplemented with 10% fetal bovine serum (FBS), 2 mM L-glutamine, 2.5 mM pyruvate, 100 μg/ml streptomycin, 100 U/ml penicillin at 37° C. For treatment with ferric ammonium citrate (FAC), 80% confluent cells were incubated for 72 h with or without 100 μM FAC in serum-free DMEM (i.e. Tf free). For drug treatment, 80% confluent cells were incubated in DMEM+10% FBS supplemented with 25 μM artesunate (Sigma) in DMSO for 48 h, 25 μM CoA (Sigma) for 72 h and 5 mM DCA (Sigma) for 72 h.
(§2) Cultured skin fibroblasts were harvested on ice by scraping in reducing (2 μM dithiothreitol, DTT, denaturation at 95° C. for 5 min) or non-reducing cell lysis buffer (no DTT, no heat denaturation). Western bot analysis was performed on 20 μg of whole-cell protein extracts or mitochondrial-enriched fractions in 12% acrylamide gel or 4-15% gel gradient. Immunodetections were performed in PBS with 5% or 1% milk, 0.05% Tween20 (SIGMA) using the following antibodies: rabbit anti-SOD1 (Abcam, ab16831), rabbit anti-SOD2 (Abcam, ab13533), mouse anti-TfR1 (Invitrogen, 13-6800), rabbit anti-TfR1 (Abcam, 108985), rabbit anti-ferritin (Abcam, ab75973), rabbit anti-IRP1 (Abcam, ab126595), rabbit anti-IRP2 (Abcam, ab80339), rabbit anti-FBXL5 (Abcam, ab140175), rabbit anti-FDXR (Abcam, 204310), rabbit anti-FXN (Protein tech, 14147-1-AP), rabbit anti-PDH E2 subunit (Abcam, ab172617), rabbit anti-lipoic acid (Abcam, ab58724), goat anti-Biotin (Thermo, 31852), mouse anti-VDAC/Porine (Abcam, ab14734)
(§3) mouse anti-ATP5a (Abcam, ab14748), mouse anti-Vinculin (abeam, ab130007), rabbit anti-TFAM (Proteintech, 19998-1-AP), rabbit ATP8 (Proteintech, 26723-1-AP) and mouse anti-GAPDH antibodies (ab8245). Blots were incubated with fluorescent secondary antibodies (IRDye 800CW/680LT Goat anti-rabbit or anti-mouse IgG (LI-COR)) or HRP-conjugated secondary antibodies (goat anti-rabbit IgG HRP (Abcam), goat anti-mouse IgG HRP (Abcam) or donkey anti-goat IgG HRP (Santa Cruz)) before ECL-based detection (SuperSignal West Dura, Thermo Scientific). Signals captured either with the Odyssey Infrared Imaging System using Image Studio Lite v5.2 (LI-COR Biosciences) or with CDD camera using Image Lab v3.0 (BioRad).

[2] = system: TfR1; experiment: TfR1 palmitoylation assay in cultured skin fibroblasts
Protocol: as §1
TfR1 palmitoylation in cultured skin fibroblasts was modified from (Ba et al., 2012). Briefly, cells were lysed on ice in a DTT-free cell lysis buffer and endogenous TfR1 was immunoprecipitated overnight with mouse anti-TfR1 antibody (Life Technologies, 136890) with protein G magnetic beads (BioRad). After washing with PBS, beads were successively incubated 2 h with 50 mM N-ethylmaleimide (NEM) at room temperature, 1 M hydroxylamine and 50 mM HPDP-Biotin (Thermo) in dark for 2 hours. Samples were run in 12% acrylamide gel and biotin-labeled TfR1 level was determined by immunoblotting in non-reducing conditions using Chemidoc technology thanks to a CCD camera (BioRad) and ImageLab software v3.0 (BioRad).

[3] = system: PBMC (iron content); experiment: Ferrozine-based iron quantification in PBMC grown in high iron medium; settings: 40 h in high iron medium (100 μM FAC), artesunate 25 μM
Protocol: PBMC were isolated from 8 ml blood samples by density centrifugation using Ficoll (GE Healthcare) and grown 2 h in regular DMEM before treatment with 100 μM FAC for different time.
(§4) Total iron contents were measured using a ferrozine-based iron assay modified from (Barbeito et al., 2010). For imaging flow cytometry, fibroblasts were starved for one hour in FBS-free DMEM medium, treated with 5 mM EDTA for harvesting them without disrupting TfR1 located at cell surface, as trypsin does, washed 3 times with cold PBS and then labelled with anti-TfR1 antibodies (A24) (Moura et al., 2004) for 1 h on ice to avoid TfR1 internalization. In this condition, only membrane-bound TfR1 is quantified. Secondary staining was performed using Alexa fluor 488 goat anti-mouse antibody (Life technology) for 30 min on ice. Cells were washed and stained with Hoechst for 5 min in a total volume of 50 μl and acquisitions were directly performed. Cell analysis was based on Hoechst-positive signal, allowing to select living cells. […] Data were acquired using the INSPIRE software (Amnis Corp) and analyzed using the IDEAS™ software (version 6.2 Amnis Corp) on at least 20,000 events. […] Results were expressed as mean pixel intensity value which is the intensity normalized to surface area.

[4] = system: TfR1; experiment: Western blot of TfR1 steady-state level in fibroblasts; settings: for steady state level of TfR1: CoA 25 μM 72 h, DCA 5 mM 72 h, artesunate 25 μM 48 h
Protocol: as §1, §2, §3

[5] = system: fibroblasts (Tf recycling); experiment: Transferrin (Tf) recycling by spinning-disk confocal microscopy in fibroblasts
Protocol: as §1
For Tf recycling, fibroblasts were spread at 30% confluence onto micro-slides glass bottom (IBIDI) 24 h before experiment. Cells were then starved in FBS-free DMEM media for 1 h before add Tf-RED (12.5 μg/mL) for 30 min at 37° C. Cells were washed with PBS and then incubated for in regular media for live-imaging acquisition using spinning disk confocal microscopy (ZEISS Microscopy). Slides were placed un incubation chamber at 37° C. under 5% CO2. At least 20 cells were acquired by condition using 63× oil immersion objective lens with a picture of cell/min during 40 min using Zen software. The nuclear region (NR) was defined using Icy software v1.9. […] PNROI masks were then applied on RED channel by spot detector plugin to obtain quantitative mean fluorescence particle intensity. […]

[6] = system: fibroblasts (cellular iron content); experiment: Ferrozine-based iron quantification in fibroblasts; settings: for iron content: control cells
Protocol: as §1
Total iron contents were measured using a ferrozine-based iron assay modified from (Barbeito et al., 2010). For imaging flow cytometry, fibroblasts were starved for one hour in FBS-free DMEM medium, treated with 5 mM EDTA for harvesting them without disrupting TfR1 located at cell surface, as trypsin does, washed 3 times with cold PBS and then labelled with anti-TfR1 antibodies (A24) (Moura et al., 2004) for 1 h on ice to avoid TfR1 internalization. In this condition, only membrane-bound TfR1 is quantified. Secondary staining was performed using Alexa fluor 488 goat anti-mouse antibody (Life technology) for 30 min on ice. Cells were washed and stained with Hoechst for 5 min in a total volume of 50 μl and acquisitions were directly performed. Cell analysis was based on Hoechst-positive signal, allowing to select living cells. Samples were run on an Imagestream ISX mkII (Amnis Corp, Millipore, Seattle, WA) that combines flow cytometry with detailed cell-imaging and functional studies and a 40× magnification was used for all acquisitions. Data were acquired using the INSPIRE software (Amnis Corp) and analyzed using the IDEAS™ software (version 6.2 Amnis Corp) on at least 20,000 events. Spectral compensation was performed using singly stained samples. A specific mask was designed for analysis of the membrane localization of TfR1. This mask was the result of a full bright field mask minus a 5 pixels erode and 1 pixel dilate bright mask resulting in doughnuts-like mask. Results were expressed as mean pixel intensity value which is the intensity normalized to surface area.

[7] = system: membrane-bound TfR1; experiment: Imaging flow cytometry (Imagestream) of membrane-bound TfR1 in fibroblasts
Protocol: as §1
Fibroblasts were starved for one hour in FBS-free DMEM medium (i.e. Tf-free), treated with 5 mM EDTA for harvesting them without disrupting TfR1 located at cell surface, as trypsin does, and then labelled with anti-TfR1 antibody at 4° C. to avoid TfR1 internalization. In this condition only membrane-bound TfR1 is quantified. Cell sorting was based on Hoechst-positive signal, allowing to select living cells.
as §4

[8] = FRDA fibroblasts, artesunate 25 μM for 48 h
[9] = control cells, artesunate 25 μM for 48 h

For `C[C@H]1[C@H](OC(=O)CCC(=O)O)O[C@@H]2O[C@@]3(C)CC[C@H]4[C@H](C)CC[C@@H]1[C@@]24OO3` [artesunate, (3R,5aS,6R,8aS,9R,10S,12R,12aR)-Decahydro-3,6,9-trimetyl-3,12-epoxy-12H-pyrano[4,3-j]-1,2-benzodioxepin-10-ol, hydrogen succinate], the “FBXL5 steady state level” value ([1]; FRDA fibroblasts) was “returned to control values”, the “IRP1-2 steady state levels” value ([1]; FRDA fibroblasts) was “not modified” and the “SOD2 steady state level” value ([1]; FRDA fibroblasts) was “decreased”. The “ferritin steady state level” value ([1]; FRDA fibroblasts) was “returned to control values”, the “FBXL5 steady state level” value ([1]; control cells) was “not modified” and the “ferritin steady state level” value ([1]; control cells) was “not modified”. The “TfR1 palmitoylation relative to controls” value [2, 8] was 80 % of controls, the TfR1 palmitoylation ([2]; control cells, artesunate treatment) was “slight but non-significant decrease” and the “iron content of PBMC” value ([3]; FRDA PBMCs) was “two-fold decrease”. For the same compound, the “iron content of PBMC” value ([3]; control PBMCs) was “two-fold decrease”, the “TfR1 steady-state level relative to control values in artesunate-free medium” value ([4]; FRDA fibroblasts, regular DMEM, artesunate 25 μM for 48 h) was 136 % of control values and the “steady state level of TfR1” value ([4]; FRDA fibroblasts) was “significantly decreased”. For the same compound, the TfR1 steady-state level [4, 9] was “slight increase”, the “Tf recycling (Tf-Alexa555 signal)” value [5, 8] was “complete rescue” and the Tf recycling ([5]; control cells treated with artesunate) was “slight delay”. For the same compound, the “cellular iron content relative to initial cellular iron content” value ([6]; FRDA fibroblasts, basal conditions, artesunate 25 μM for 48 h) was 62-79 % of initial cellular iron content, the “decrease of cellular iron content” value ([6]; FRDA fibroblasts, high iron condition (100 μM FAC), 25 μM artesunate for 48 h) was 71-79% and the iron content ([6]; basal conditions, artesunate 25 μM for 48 h) was “light but non-significant increase”. The iron content ([6]; high iron conditions (100 μM FAC), 25 μM artesunate) was “decreased”, the “decrease of membrane TfR1” value [7, 8] was 15-30% and the “increase of membrane TfR1” value [7, 9] was 1.1 to 1.3 fold.

In the case of `CC(C)(COP(=O)(O)OP(=O)(O)OC[C@H]1O[C@@H](n2cnc3c(N)ncnc32)[C@H](O)[C@@H]1OP(=O)(O)O)[C@@H](O)C(=O)NCCC(=O)NCCS` [CoA, [[(2R,3S,4R,5R)-5-(6-aminopurin-9-yl)-4-hydroxy-3-phosphonooxyoxolan-2-yl]methoxy-hydroxyphosphoryl][(3R)-3-hydroxy-2,2-dimethyl-4-oxo-4-[[3-oxo-3-(2-sulfanylethylamino)propyl]amino]butyl]hydrogen phosphate], the “increase of TfR1 palmitoylation” value ([2]; FRDA fibroblasts, CoA 25 μM for 72 h) is reported as 2.1 to 3.2 fold, the “steady state level of TfR1” value ([4]; FRDA fibroblasts) is reported as “decreased” and the “decrease of cellular iron content” value ([6]; FRDA fibroblasts, high iron conditions (+FAC), CoA 25 μM for 72 h) is reported as 1.6-2.4 fold. For the same compound, the “membrane TfR1 accumulation” value ([7]; summary statement in discussion, conditions not given) was “reduced”.
